Experimental data: ChEMBL document CHEMBL1201861, “Genomics of Drug Sensitity in Cancer screening data, Wellcome Trust Sanger Institute”
Structures can show the parent of a compound that is named as a salt.

Key:
Assay in all cases: cells
Format in all cases: functional, cell-based, Homo sapiens
[1] = test system: NB69; conditions: Homo sapiens, NB69;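 also: growth inhibition of NB69 cells, determined by a cell viability assay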
Description: SANGER: Inhibition of human NB69 cell growth in a cell viability assay.

[2] = test system: Mo; conditions: Homo sapiens, Mo
Description: SANGER: Inhibition of human Mo-T cell growth in a cell viability assay.

[3] = test system: SK-MEL-1; conditions: Homo sapiens, SK-MEL-1;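 also: growth inhibition of human SK-MEL-1 cells, read out by a cell viability assay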
Description: SANGER: Inhibition of human SK-MEL-1 cell growth in a cell viability assay.

[4] = test system: NCI-H1304; conditions: Homo sapiens, NCI-H1304;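 also: growth inhibition of the cancer cell line, measured in a cell viability assay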
Description: SANGER: Inhibition of human NCI-H1304 cell growth in a cell viability assay.

[5] = test system: CP66-MEL; conditions: Homo sapiens, CP66-MEL;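 also: growth inhibition of CP66-MEL cells determined in a cell viability assay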
Description: SANGER: Inhibition of human CP66-MEL cell growth in a cell viability assay.

[6] = test system: A4-Fuk; conditions: Homo sapiens, A4-Fuk;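 also: growth inhibition of A4-Fuk cells, read out by a cell viability assay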
Description: SANGER: Inhibition of human A4-Fuk cell growth in a cell viability assay.

[7] = test system: GR-ST; conditions: Homo sapiens, GR-ST
Description: SANGER: Inhibition of human GR-ST cell growth in a cell viability assay.

[8] = test system: DJM-1; conditions: Homo sapiens, DJM-1;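 also: growth inhibition of human DJM-1 cells, read out by a cell viability assay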
Description: SANGER: Inhibition of human DJM-1 cell growth in a cell viability assay.

[9] = test system: CTV-1; conditions: Homo sapiens, CTV-1;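 also: growth inhibition of the cell line, read out with a cell viability assay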
Description: SANGER: Inhibition of human CTV-1 cell growth in a cell viability assay.

[10] = test system: KP-N-YS; conditions: Homo sapiens, KP-N-YS;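 also: cell viability assay measuring inhibition of cell line growth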
Description: SANGER: Inhibition of human KP-N-YS cell growth in a cell viability assay.

[11] = test system: GCIY; conditions: Homo sapiens, GCIY;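 also: growth inhibition of the human GCIY cell line, read out by a cell viability assay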
Description: SANGER: Inhibition of human GCIY cell growth in a cell viability assay.

[12] = test system: Ramos-2G6-4C10; conditions: Homo sapiens, Ramos-2G6-4C10;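 also: growth inhibition of the cell line, measured by a cell viability read-out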
Description: SANGER: Inhibition of human Ramos-2G6-4C10 cell growth in a cell viability assay.

[13] = test system: P30-OHK; conditions: Homo sapiens, P30-OHK;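 also: growth inhibition of the P30-OHK cell line, read out with a cell viability assay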
Description: SANGER: Inhibition of human P30-OHK cell growth in a cell viability assay.

[14] = test system: MOLT-4; conditions: Homo sapiens, MOLT-4;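 also: growth inhibition of MOLT-4 cells, determined with a cell viability readout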
Description: SANGER: Inhibition of human MOLT-4 cell growth in a cell viability assay.

[15] = test system: SCC-15; conditions: Homo sapiens, SCC-15;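 also: growth inhibition of SCC-15 cells, read out with a cell viability assay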
Description: SANGER: Inhibition of human SCC-15 cell growth in a cell viability assay.

[16] = test system: EKVX; conditions: Homo sapiens, EKVX;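 also: growth inhibition of human EKVX cells, read out with a cell viability assay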
Description: SANGER: Inhibition of human EKVX cell growth in a cell viability assay.

[17] = test system: TE-11; conditions: Homo sapiens, TE-11;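 also: growth inhibition of human TE-11 cells, read out by a cell viability assay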
Description: SANGER: Inhibition of human TE-11 cell growth in a cell viability assay.

[18] = test system: EW-1; conditions: Homo sapiens, EW-1;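 also: growth inhibition of the human EW-1 cell line, read out by a cell viability assay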
Description: SANGER: Inhibition of human EW-1 cell growth in a cell viability assay.

[19] = test system: GI-1; conditions: Homo sapiens, GI-1;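 also: growth inhibition of human GI-1 cells, measured with a cell viability readout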
Description: SANGER: Inhibition of human GI-1 cell growth in a cell viability assay.

[20] = test system: KALS-1; conditions: Homo sapiens, KALS-1;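 also: growth inhibition of KALS-1 cells, determined with a cell viability assay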
Description: SANGER: Inhibition of human KALS-1 cell growth in a cell viability assay.

[21] = test system: COLO-829; conditions: Homo sapiens, COLO-829
Description: SANGER: Inhibition of human COLO-829 cell growth in a cell viability assay.

[22] = test system: LS-1034; conditions: Homo sapiens, LS-1034
Description: SANGER: Inhibition of human LS-1034 cell growth in a cell viability assay.

[23] = test system: NCI-H23; conditions: Homo sapiens, NCI-H23;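 also: cell viability assay measuring growth inhibition of NCI-H23 cells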
Description: SANGER: Inhibition of human NCI-H23 cell growth in a cell viability assay.

[24] = test system: NCI-H510A; conditions: Homo sapiens, NCI-H510A;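 also: growth inhibition of NCI-H510A cells, read out with a cell viability assay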
Description: SANGER: Inhibition of human NCI-H510A cell growth in a cell viability assay.

[25] = test system: HCE-T; conditions: Homo sapiens, HCE-T;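 also: cell viability assay read-out, reporting inhibition of HCE-T cell growth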
Description: SANGER: Inhibition of human HCE-T cell growth in a cell viability assay.

[26] = test system: MHH-PREB-1; conditions: Homo sapiens, MHH-PREB-1;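 also: cell viability assay measuring inhibition of proliferation of human MHH-PREB-1 cells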
Description: SANGER: Inhibition of human MHH-PREB-1 cell growth in a cell viability assay.

[27] = test system: OS-RC-2; conditions: Homo sapiens, OS-RC-2;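 also: growth inhibition of human OS-RC-2 cells, measured by a cell viability assay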
Description: SANGER: Inhibition of human OS-RC-2 cell growth in a cell viability assay.

[28] = test system: COLO-320-HSR; conditions: Homo sapiens, COLO-320-HSR;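 also: growth inhibition of COLO-320-HSR cells, determined with a cell viability assay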
Description: SANGER: Inhibition of human COLO-320-HSR cell growth in a cell viability assay.

[29] = test system: KNS-42; conditions: Homo sapiens, KNS-42;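 also: growth inhibition of KNS-42 cells, read out with a cell viability assay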
Description: SANGER: Inhibition of human KNS-42 cell growth in a cell viability assay.

[30] = test system: A388; conditions: Homo sapiens, A388;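 also: growth inhibition of human A388 cells, read out with a cell viability assay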
Description: SANGER: Inhibition of human A388 cell growth in a cell viability assay.

[31] = test system: KARPAS-299; conditions: Homo sapiens, KARPAS-299
Description: SANGER: Inhibition of human KARPAS-299 cell growth in a cell viability assay.

[32] = test system: LB2241-RCC; conditions: Homo sapiens, LB2241-RCC;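 also: cell viability assay measuring how strongly the cultured human renal carcinoma line is prevented from growing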
Description: SANGER: Inhibition of human LB2241-RCC cell growth in a cell viability assay.

[33] = test system: JVM-2; conditions: Homo sapiens, JVM-2;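 also: growth inhibition of JVM-2 cells determined by a cell viability assay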
Description: SANGER: Inhibition of human JVM-2 cell growth in a cell viability assay.

[34] = test system: EW-18; conditions: Homo sapiens, EW-18;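 also: growth inhibition of EW-18 cells, read out by a cell viability assay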
Description: SANGER: Inhibition of human EW-18 cell growth in a cell viability assay.

[35] = test system: OCI-AML2; conditions: Homo sapiens, OCI-AML2;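 also: growth inhibition of OCI-AML2 cells, read out with a cell viability assay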
Description: SANGER: Inhibition of human OCI-AML2 cell growth in a cell viability assay.

[36] = test system: GB-1; conditions: Homo sapiens, GB-1;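 also: growth of GB-1 cells judged by a viability assay, IC50 marks the concentration inhibiting growth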
Description: SANGER: Inhibition of human GB-1 cell growth in a cell viability assay.

[37] = test system: VA-ES-BJ; conditions: Homo sapiens, VA-ES-BJ;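 also: growth inhibition of the VA-ES-BJ cell line, read out by a cell viability assay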
Description: SANGER: Inhibition of human VA-ES-BJ cell growth in a cell viability assay.

[38] = test system: MMAC-SF; conditions: Homo sapiens, MMAC-SF;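 also: growth inhibition of human MMAC-SF cells, read out with a cell viability assay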
Description: SANGER: Inhibition of human MMAC-SF cell growth in a cell viability assay.

[39] = test system: MHH-NB-11; conditions: Homo sapiens, MHH-NB-11;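 also: growth inhibition of human MHH-NB-11 cells, read out by a cell viability assay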
Description: SANGER: Inhibition of human MHH-NB-11 cell growth in a cell viability assay.

[40] = test system: NCI-H747; conditions: Homo sapiens, NCI-H747;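 also: growth inhibition of human NCI-H747 cells, read out by a cell viability assay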
Description: SANGER: Inhibition of human NCI-H747 cell growth in a cell viability assay.

[41] = test system: no-10; conditions: Homo sapiens;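 also: growth inhibition of no-10 cells, read out with a cell viability assay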
Description: SANGER: Inhibition of human no-10 cell growth in a cell viability assay.

[42] = test system: D283 Med; conditions: Homo sapiens, D283 Med
Description: SANGER: Inhibition of human D-283MED cell growth in a cell viability assay.

[43] = test system: LS-513; conditions: Homo sapiens, LS-513
Description: SANGER: Inhibition of human LS-513 cell growth in a cell viability assay.

[44] = test system: KGN; conditions: Homo sapiens, KGN;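 also: growth inhibition of KGN cells, read out with a cell viability assay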
Description: SANGER: Inhibition of human KGN cell growth in a cell viability assay.

[45] = test system: MSTO-211H; conditions: Homo sapiens, MSTO-211H
Description: SANGER: Inhibition of human MSTO-211H cell growth in a cell viability assay.

[46] = test system: NTERA-2-cl-D1; conditions: Homo sapiens, NTERA-2-cl-D1;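 also: inhibition of cell growth, measured with a cell viability assay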
Description: SANGER: Inhibition of human NTERA-S-cl-D1 cell growth in a cell viability assay.

[47] = test system: NB5; conditions: Homo sapiens, NB5;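 also: growth inhibition of NB5 cells, read out as cell viability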
Description: SANGER: Inhibition of human NB5 cell growth in a cell viability assay.

[48] = test system: HT-144; conditions: Homo sapiens, HT-144
Description: SANGER: Inhibition of human HT-144 cell growth in a cell viability assay.

[49] = test system: JVM-3; conditions: Homo sapiens, JVM-3;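 also: growth inhibition of human JVM-3 cells, read out with a cell viability assay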
Description: SANGER: Inhibition of human JVM-3 cell growth in a cell viability assay.

Compound: COc1cccc2c1C(=O)c1c(O)c3c(c(O)c1C2=O)C[C@@](O)(C(=O)CO)C[C@@H]3O[C@H]1C[C@H](N)[C@H](O)[C@H](C)O1 [DOXORUBICIN]
- IC50 [1]: 79.2 nM
- IC50 [2]: 805 nM
- IC50 [3]: > 1020 nM
- IC50 [4]: 321 nM
- IC50 [5]: > 1020 nM
- IC50 [6]: 162 nM
- IC50 [7]: 255 nM
- IC50 [8]: 102 nM
- IC50 [9]: 16.1 nM
- IC50 [10]: 218 nM
- IC50 [11]: 725 nM
- IC50 [12]: 295 nM
- IC50 [13]: 57.6 nM
- IC50 [14]: 22.9 nM
- IC50 [15]: 188 nM
- IC50 [16]: 872 nM
- IC50 [17]: 241 nM
- IC50 [18]: 61.3 nM
- IC50 [19]: 69.7 nM
- IC50 [20]: 29.3 nM
- IC50 [21]: > 1020 nM
- IC50 [22]: 385 nM
- IC50 [23]: 284 nM
- IC50 [24]: 360 nM
- IC50 [25]: 165 nM
- IC50 [26]: 230 nM
- IC50 [27]: 182 nM
- IC50 [28]: 513 nM
- IC50 [29]: 243 nM
- IC50 [30]: 28.5 nM
- IC50 [31]: > 1020 nM
- IC50 [32]: 235 nM
- IC50 [33]: 242 nM
- IC50 [34]: 251 nM
- IC50 [35]: 45 nM
- IC50 [36]: 213 nM
- IC50 [37]: 33.4 nM
- IC50 [38]: 106 nM
- IC50 [39]: 220 nM
- IC50 [40]: 135 nM
- IC50 [41]: 160 nM
- IC50 [42]: 250 nM
- IC50 [43]: > 1020 nM
- IC50 [44]: 6.34 nM
- IC50 [45]: > 1020 nM
- IC50 [46]: 1.37 nM
- IC50 [47]: 360 nM
- IC50 [48]: 3.51 nM
- IC50 [49]: > 1020 nM

Compound: COC1=CC(c2cc3ccccc3[nH]2)=N/C1=C\c1[nH]c(C)cc1C [OBATOCLAX MESYLATE]
- IC50 [1]: 15.7 nM
- IC50 [2]: 1900 nM
- IC50 [3]: > 16000 nM
- IC50 [4]: 1640 nM
- IC50 [5]: 871 nM
- IC50 [6]: 89.5 nM
- IC50 [7]: < 62.5 nM
- IC50 [8]: 175 nM
- IC50 [9]: 75.2 nM
- IC50 [10]: 789 nM
- IC50 [11]: 310 nM
- IC50 [12]: 129 nM
- IC50 [13]: 240 nM
- IC50 [14]: 477 nM
- IC50 [15]: 49 nM
- IC50 [16]: 1660 nM
- IC50 [17]: 302 nM
- IC50 [18]: < 62.5 nM
- IC50 [19]: 275 nM
- IC50 [20]: 600 nM
- IC50 [21]: 720 nM
- IC50 [22]: 658 nM
- IC50 [23]: 10600 nM
- IC50 [24]: 772 nM
- IC50 [25]: 125 nM
- IC50 [26]: < 62.5 nM
- IC50 [27]: 431 nM
- IC50 [28]: 52.9 nM
- IC50 [29]: 400 nM
- IC50 [30]: 57 nM
- IC50 [31]: > 16000 nM
- IC50 [32]: 761 nM
- IC50 [33]: 3940 nM
- IC50 [34]: 130 nM
- IC50 [35]: 57.8 nM
- IC50 [36]: 164 nM
- IC50 [37]: 700 nM
- IC50 [38]: 76.7 nM
- IC50 [39]: 3440 nM
- IC50 [40]: 143 nM
- IC50 [41]: 1460 nM
- IC50 [42]: 1120 nM
- IC50 [43]: > 16000 nM
- IC50 [44]: 261 nM
- IC50 [45]: 4840 nM
- IC50 [46]: 104 nM
- IC50 [47]: 1410 nM
- IC50 [48]: < 62.5 nM
- IC50 [49]: > 16000 nM

Compound: Cc1ccc(-c2c(C(=O)CCl)n(CCCO)c3ncnc(N)c23)cc1
- IC50 [1]: > 4000 nM
- IC50 [2]: > 4000 nM
- IC50 [3]: > 4000 nM
- IC50 [4]: > 4000 nM
- IC50 [5]: > 4000 nM
- IC50 [6]: > 4000 nM
- IC50 [7]: > 4000 nM
- IC50 [8]: > 4000 nM
- IC50 [9]: > 4000 nM
- IC50 [10]: > 4000 nM
- IC50 [11]: > 4000 nM
- IC50 [12]: > 4000 nM
- IC50 [13]: > 4000 nM
- IC50 [14]: > 4000 nM
- IC50 [15]: > 4000 nM
- IC50 [16]: > 4000 nM
- IC50 [17]: > 4000 nM
- IC50 [18]: > 4000 nM
- IC50 [19]: 2700 nM
- IC50 [20]: > 4000 nM
- IC50 [21]: > 4000 nM
- IC50 [22]: > 4000 nM
- IC50 [23]: > 4000 nM
- IC50 [24]: > 4000 nM
- IC50 [25]: > 4000 nM
- IC50 [26]: 3940 nM
- IC50 [27]: > 4000 nM
- IC50 [28]: > 4000 nM
- IC50 [29]: > 4000 nM
- IC50 [30]: 2190 nM
- IC50 [31]: > 4000 nM
- IC50 [32]: 699 nM
- IC50 [33]: > 4000 nM
- IC50 [34]: > 4000 nM
- IC50 [35]: > 4000 nM
- IC50 [36]: > 4000 nM
- IC50 [37]: > 4000 nM
- IC50 [38]: > 4000 nM
- IC50 [39]: > 4000 nM
- IC50 [40]: > 4000 nM
- IC50 [41]: > 4000 nM
- IC50 [42]: > 4000 nM
- IC50 [43]: > 4000 nM
- IC50 [44]: > 4000 nM
- IC50 [45]: > 4000 nM
- IC50 [46]: > 4000 nM
- IC50 [47]: > 4000 nM
- IC50 [48]: 3280 nM
- IC50 [49]: > 4000 nM

Compound: CCC/C=C/C=C/C(=O)O[C@H]1/C(=C/C(=O)OC)C[C@H]2C[C@H]([C@@H](C)O)OC(=O)C[C@H](O)C[C@@H]3C[C@H](OC(C)=O)C(C)(C)[C@](O)(C[C@@H]4C/C(=C/C(=O)OC)C[C@H](/C=C/C(C)(C)[C@]1(O)O2)O4)O3 [BRYOSTATIN 1]
- IC50 [1]: > 8 nM
- IC50 [2]: > 8 nM
- IC50 [3]: > 8 nM
- IC50 [4]: > 8 nM
- IC50 [5]: > 8 nM
- IC50 [6]: > 8 nM
- IC50 [7]: > 8 nM
- IC50 [8]: > 8 nM
- IC50 [9]: > 8 nM
- IC50 [10]: > 8 nM
- IC50 [11]: > 8 nM
- IC50 [12]: > 8 nM
- IC50 [13]: > 8 nM
- IC50 [14]: > 8 nM
- IC50 [15]: > 8 nM
- IC50 [16]: > 8 nM
- IC50 [17]: > 8 nM
- IC50 [18]: > 8 nM
- IC50 [19]: > 8 nM
- IC50 [20]: > 8 nM
- IC50 [21]: > 8 nM
- IC50 [22]: > 8 nM
- IC50 [23]: > 8 nM
- IC50 [24]: > 8 nM
- IC50 [25]: > 8 nM
- IC50 [26]: > 8 nM
- IC50 [27]: > 8 nM
- IC50 [28]: > 8 nM
- IC50 [29]: > 8 nM
- IC50 [30]: > 8 nM
- IC50 [31]: > 8 nM
- IC50 [32]: > 8 nM
- IC50 [33]: > 8 nM
- IC50 [34]: > 8 nM
- IC50 [35]: > 8 nM
- IC50 [36]: > 8 nM
- IC50 [37]: > 8 nM
- IC50 [38]: > 8 nM
- IC50 [39]: > 8 nM
- IC50 [40]: > 8 nM
- IC50 [41]: > 8 nM
- IC50 [42]: > 8 nM
- IC50 [43]: > 8 nM
- IC50 [44]: > 8 nM
- IC50 [45]: > 8 nM
- IC50 [46]: > 8 nM
- IC50 [47]: > 8 nM
- IC50 [48]: > 8 nM
- IC50 [49]: > 8 nM
